Literature values in patent US10799517B2, “Oral composition of celecoxib for treatment of pain” (Dr. Reddy's Laboratories Ltd., priority 2015, dated 2020).

Columns and labels:
[1] = between 5° C. and 40° C.; pH independent at pH<9
[2] = upon oral administration

## Cc1ccc(-c2cc(C(F)(F)F)nn2-c2ccc(S(N)(=O)=O)cc2)cc1 [Celecoxib, 4-[5-(4-methylphenyl)-3-(trifluoromethyl)-1H-pyrazol-1-yl] benzenesulfonamide]
[1]
  aqueous solubility: about 5 μg/ml
[2]
  time for peak plasma concentrations to be achieved: approximately 3.0 hours
